Test system: potatoes
Experiment: sprout inhibition in a ventilated package of potatoes with a pouch of silica gel carrying 1,4-DMN
Assay type: in vivo, potato
From the text: A package containing ten pounds of potatoes (approximately 5 kg) can be treated according to the instant invention with about 5 grams of silica gel contacted with 2 grams of 1,4-DMN. The substantially saturated silica gel may be placed in a pouch made of cotton fabric having a tight weave. The weave is sufficiently tight that the minute, generally less than 0.5 mm and often less than 0.2 mm, particles are retained in the fabric pouch.
The potatoes, in a plastic bag with numerous ventilation holes, may be allowed to be in a storage room without air conditioning. A single pouch may be placed in the bag with the potatoes.
For example, amounts of DMN from about 0.02 gram to about 1.0 gram per pound of potatoes (˜0.5 kg) may be effectively used. For various reasons, lower amounts are desirable, consistent with effectiveness for the amount of potatoes, volume of voids, length of residence time of the potatoes in the package and range of temperatures to be experienced.

SMILES: Cc1ccc(C)c2ccccc12 [1,4-DMN, 1,4-dimethyl naphthalene]
- preclusion of sprouting (0.2 grams of 1,4-DMN per one pound (~0.5 kg) of potatoes): adequately precludes sprouting
- sprouting after 30 days (ten pounds of potatoes in ventilated plastic bag, one cotton pouch with about 5 grams silica gel and 2 grams 1,4-DMN, unconditioned store room, 30 days): No significant sprouting

Reference: US6338296B1, “Release device for slowly releasing sprout inhibitor into packages of potatoes” (priority 1996, dated 2002)
